Reference: patent US8569342B2, “Diastereomers of 4-aryloxy-3-hydroxypiperidines” (Brentwood Equities, Ltd., priority 2003, dated 2013)
Where two headings read alike, the source gives them in different places.

Tests used:
[1] = molecular target: human 5-HT2B receptor (Homo sapiens, UniProt P41595); assay: 5-HT2B receptor binding assay; conditions: for inhibition at 0.1 µM: 100 nM compound, 1.2 nM [3H]-LSD, 60 minutes at 22° C., CHO cells, read-out: % inhibition of control specific at 100 nM conc.
Sequence of human 5-HT2B receptor (P41595 whole entry): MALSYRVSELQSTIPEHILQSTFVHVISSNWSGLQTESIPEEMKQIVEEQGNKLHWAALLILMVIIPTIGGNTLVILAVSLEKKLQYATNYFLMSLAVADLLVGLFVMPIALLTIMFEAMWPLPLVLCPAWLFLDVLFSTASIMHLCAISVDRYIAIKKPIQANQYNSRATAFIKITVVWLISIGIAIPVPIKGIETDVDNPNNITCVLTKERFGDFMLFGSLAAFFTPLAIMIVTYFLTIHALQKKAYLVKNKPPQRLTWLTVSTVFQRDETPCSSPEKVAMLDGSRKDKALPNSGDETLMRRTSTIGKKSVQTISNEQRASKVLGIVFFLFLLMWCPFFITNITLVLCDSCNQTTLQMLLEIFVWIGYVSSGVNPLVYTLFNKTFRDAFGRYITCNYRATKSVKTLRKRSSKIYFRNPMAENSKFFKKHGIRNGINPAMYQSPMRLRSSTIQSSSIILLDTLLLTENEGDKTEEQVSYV
Description: (§1) 5-HT receptor binding assays were performed according to the method well known in the art. See for example Mulerhorn et al. J. Biol. Chem. 269 (1994) 12954-12962, Bonhaus et al. (1995) et al. J. Biol. Chem. 269 (1994) 12954-12962 herein incorporated by reference in its entirety. See also U.S. Pat. Nos. 5,126,363; 5,688,807; 5,786,157; and 5,869,691 herein incorporated by reference in their entirety.
(§2) Briefly, CHO cells expressing human 5-HT receptor subtypes, or membranes prepared therefrom, were incubated with a specific radioactive ligand for 60 minutes at 22° C. (0.5 nM of [^3H]-8-OH-DPAT for 5-HT1A receptors, 1.2 nM of [^3H]-LSD for 5-HT2B receptors). Incubations were performed in the presence or absence of one of the following diastereomers: 10 μM 8-OH-DPAT; 100 nM (3S,4R)-4-(2,3-dimethylphenyl)-3-hydroxypiperidine; 100 nM (3R,4S)-4-(2,3-dimethylphenyl)-3-hydroxypiperidine; 100 nM (3R,4R)-4-(2,3-dimethylphenyl)-3-hydroxypiperidine; 100 nM (3S,4S)-4-(2,3-dimethylphenyl)-3-hydroxypiperidine. Following incubation the cells or membranes were washed recovered and the radioactivity content of the filter used to determine specific receptor binding and inhibition by the essential pure diastereomers.

[2] = molecular target: NE uptake (Homo sapiens, UniProt P23975); assay: NE uptake binding assay; conditions: for inhibition at 0.1 µM: 100 nM compound, read-out: % inhibition of control specific at 100 nM conc.
Sequence of NE uptake (P23975 whole entry): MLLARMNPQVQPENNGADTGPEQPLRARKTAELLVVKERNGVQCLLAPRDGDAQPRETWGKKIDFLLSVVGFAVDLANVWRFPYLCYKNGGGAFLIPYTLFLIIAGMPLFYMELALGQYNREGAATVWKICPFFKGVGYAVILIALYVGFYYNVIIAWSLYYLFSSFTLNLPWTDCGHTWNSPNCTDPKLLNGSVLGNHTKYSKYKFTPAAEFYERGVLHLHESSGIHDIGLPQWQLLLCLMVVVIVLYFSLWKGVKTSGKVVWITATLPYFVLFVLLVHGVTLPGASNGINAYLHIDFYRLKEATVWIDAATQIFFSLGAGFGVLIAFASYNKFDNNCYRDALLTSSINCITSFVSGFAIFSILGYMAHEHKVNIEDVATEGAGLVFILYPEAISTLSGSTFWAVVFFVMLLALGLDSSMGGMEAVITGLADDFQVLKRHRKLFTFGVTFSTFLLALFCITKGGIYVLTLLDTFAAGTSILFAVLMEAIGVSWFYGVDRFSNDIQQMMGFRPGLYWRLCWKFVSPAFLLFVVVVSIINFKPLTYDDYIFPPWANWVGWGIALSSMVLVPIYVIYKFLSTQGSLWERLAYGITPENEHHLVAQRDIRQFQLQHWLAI

[3] = molecular target: T1, 5-HT7 (Homo sapiens, UniProt P34969); assay: 5-HT7 receptor binding assay; conditions: for inhibition at 0.1 µM: 100 nM compound, read-out: % inhibition of control specific at 100 nM conc.
T1 construct: expressed in transfected cells; host or cells: CHO cells
T1 sequence (P34969 whole entry): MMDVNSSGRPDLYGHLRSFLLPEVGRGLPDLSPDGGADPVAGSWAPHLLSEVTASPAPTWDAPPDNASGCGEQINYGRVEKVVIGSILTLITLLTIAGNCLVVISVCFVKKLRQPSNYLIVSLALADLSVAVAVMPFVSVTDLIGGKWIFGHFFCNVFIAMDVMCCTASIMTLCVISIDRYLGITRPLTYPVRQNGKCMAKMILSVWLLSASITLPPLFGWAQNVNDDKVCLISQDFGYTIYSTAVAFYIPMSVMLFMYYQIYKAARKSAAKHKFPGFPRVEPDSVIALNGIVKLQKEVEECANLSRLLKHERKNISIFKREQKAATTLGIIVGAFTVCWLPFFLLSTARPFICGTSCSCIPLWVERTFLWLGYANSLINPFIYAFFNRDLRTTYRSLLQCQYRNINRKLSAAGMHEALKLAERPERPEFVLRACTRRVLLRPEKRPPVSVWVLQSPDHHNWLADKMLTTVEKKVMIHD

[4] = molecular target: 5-HT2c (Homo sapiens, UniProt P28335); assay: 5-HT2c receptor binding assay; conditions: for inhibition at 0.1 µM: 100 nM compound, read-out: % inhibition of control specific at 100 nM conc.
Sequence of 5-HT2c (P28335 33-458): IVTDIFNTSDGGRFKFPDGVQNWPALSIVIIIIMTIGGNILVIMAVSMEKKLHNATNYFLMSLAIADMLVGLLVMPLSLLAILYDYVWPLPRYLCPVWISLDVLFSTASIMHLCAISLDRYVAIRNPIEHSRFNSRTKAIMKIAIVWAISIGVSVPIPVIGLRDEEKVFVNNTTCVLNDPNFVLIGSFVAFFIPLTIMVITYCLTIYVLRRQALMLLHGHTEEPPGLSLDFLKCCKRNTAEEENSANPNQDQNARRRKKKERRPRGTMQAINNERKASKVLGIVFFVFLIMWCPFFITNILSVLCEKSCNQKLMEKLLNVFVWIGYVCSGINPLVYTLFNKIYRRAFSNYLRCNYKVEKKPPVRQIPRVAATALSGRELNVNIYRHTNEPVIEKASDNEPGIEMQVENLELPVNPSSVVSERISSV

[5] = molecular target: T2, human 5-HT1A receptor (Homo sapiens, UniProt P08908); assay: 5-HT1A receptor binding assay; conditions: for inhibition at 0.1 µM: 100 nM compound, 0.5 nM [3H]-8-OH-DPAT, 60 minutes at 22° C., CHO cells, read-out: % inhibition of control specific at 100 nM conc.
T2 construct: expressed in transfected cells; host or cells: CHO cells
T2 sequence (P08908 1-422): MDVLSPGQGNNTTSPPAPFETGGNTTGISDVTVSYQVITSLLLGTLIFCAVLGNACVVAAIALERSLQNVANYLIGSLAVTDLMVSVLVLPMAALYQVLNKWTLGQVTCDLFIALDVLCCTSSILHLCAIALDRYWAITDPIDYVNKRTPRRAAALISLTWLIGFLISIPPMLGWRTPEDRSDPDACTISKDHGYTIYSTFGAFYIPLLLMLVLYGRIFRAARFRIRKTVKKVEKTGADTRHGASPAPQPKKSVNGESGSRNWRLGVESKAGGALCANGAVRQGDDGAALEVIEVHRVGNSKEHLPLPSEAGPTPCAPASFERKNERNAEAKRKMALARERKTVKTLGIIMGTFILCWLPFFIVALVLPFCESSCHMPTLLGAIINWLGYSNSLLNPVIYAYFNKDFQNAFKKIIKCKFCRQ
Description: as §1, §2

[6] = tested on: 5-HT4C; assay: 5-HT4C receptor binding assay; set-up: species or system human; conditions: for % inhibition of control specific at 100 nM conc.: 100 nM compound
Description: as §1, §2

[7] = molecular target: 5-HT3 (Homo sapiens, UniProt P46098); assay: 5-HT3 receptor binding assay; conditions: for inhibition at 0.1 µM: 100 nM compound, read-out: % inhibition of control specific at 100 nM conc.
Sequence of 5-HT3 (P46098 24-478): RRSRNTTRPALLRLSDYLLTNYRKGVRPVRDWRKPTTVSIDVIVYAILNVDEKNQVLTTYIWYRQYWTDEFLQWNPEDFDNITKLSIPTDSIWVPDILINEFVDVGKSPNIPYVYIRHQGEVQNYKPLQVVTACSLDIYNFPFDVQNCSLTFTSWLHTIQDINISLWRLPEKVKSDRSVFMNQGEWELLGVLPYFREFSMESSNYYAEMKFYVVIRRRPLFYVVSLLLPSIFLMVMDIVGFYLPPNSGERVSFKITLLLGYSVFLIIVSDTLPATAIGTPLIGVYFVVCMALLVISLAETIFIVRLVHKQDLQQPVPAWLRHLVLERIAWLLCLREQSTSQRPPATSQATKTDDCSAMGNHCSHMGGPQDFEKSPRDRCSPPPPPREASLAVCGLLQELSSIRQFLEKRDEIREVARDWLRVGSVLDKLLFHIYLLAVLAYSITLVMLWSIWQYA

[8] = tested on: doparine receptors; conditions: in vivo; Waldmeier; cited from earlier work
[9] = tested on: 5-HT2 receptors; conditions: in vivo; Waldmeier; cited from earlier work
[10] = tested on: muscarinic acetylcholine receptors; conditions: in vitro; Waldmeier; cited from earlier work
[11] = tested on: benzodiazepine receptors; conditions: in vitro; Waldmeier; cited from earlier work
[12] = tested on: opiate receptors; conditions: in vitro; Waldmeier; cited from earlier work
[13] = tested on: GABAA receptors; conditions: in vitro; Waldmeier; cited from earlier work
[14] = tested on: 5-HT2 receptors; conditions: Waldmeier, cited from earlier work
[15] = tested on: alpha1-noradrenoceptors; conditions: in vitro; Waldmeier; cited from earlier work
[16] = tested on: histamine H1 receptors; conditions: in vitro; Waldmeier; cited from earlier work
[17] = tested on: 5-HT1 receptors; conditions: Waldmeier, cited from earlier work
[18] = tested on: alpha2-noradrenoceptors; conditions: in vitro; Waldmeier; cited from earlier work
[19] = tested on: 5-HT uptake processes in the periphery (blood platelets); conditions: Delini-Stula et al.; cited from earlier work
[20] = tested on: 5-HT reuptake in the brain; conditions: Delini-Stula et al.; cited from earlier work
[21] = tested on: beta-noradrenoceptors; conditions: in vitro; Waldmeier; cited from earlier work

Compound: Cc1cccc(O[C@@H]2CCNC[C@@H]2O)c1C
- inhibition at 0.1 µM [1]: 6%
- inhibition of binding to Ne (Norepinephrine) uptake receptors (in words) [2]: inhibits binding
- inhibition at 0.1 µM [2]: 8%
- inhibition at 0.1 µM [3]: 6%
- inhibition at 0.1 µM [4]: -17%
- inhibition at 0.1 µM [5]: 9%
- inhibition of binding to 5-HT4c receptors (in words) [6]: inhibits binding
- % inhibition of control specific at 100 nM conc. [6]: 15%
- inhibition of binding to 5-HT3 receptors (in words) [7]: inhibits binding
- inhibition at 0.1 µM [7]: 11%

Compound: Cc1cccc(O[C@H]2CCNC[C@H]2O)c1C.Cc1cccc(O[C@H]2CCNC[C@H]2O)c1C.O=S(=O)(O)O (relative stereo) [ifoxetine, (+/−)-bis-[cis-3-hydroxy-4-(2,3-dimethyl-phenoxy)]-piperidine sulfate]
- interaction with doparine receptors [8]: weak or no interactions
- interaction with 5-HT2 receptors [9]: weak or no interactions
- interaction with muscarinic acetylcholine receptors [10]: weak or no interactions
- interaction with benzodiazepine receptors [11]: weak or no interactions
- interaction with opiate receptors [12]: weak or no interactions
- interaction with GABAA receptors [13]: weak or no interactions
- activity at 5-HT2 receptors ([14]; 10 μM of the racemate): minimal activity
- interaction with 5-HT2 receptors ([14]; in vitro): weak or no interactions
- interaction with alpha1-noradrenoceptors [15]: weak or no interactions
- interaction with histamine H1 receptors [16]: weak or no interactions
- activity at 5-HT1 receptors ([17]; 10 μM of the racemate): minimal activity
- interaction with 5-HT1 receptors ([17]; in vitro): weak or no interactions
- interaction with alpha2-noradrenoceptors [18]: weak or no interactions
- effect on 5-HT uptake processes in the periphery (blood platelets) [19]: without affecting
- block of 5-HT reuptake in the brain [20]: specifically and selectively blocks
- interaction with beta-noradrenoceptors [21]: weak or no interactions

Compound: Cc1cccc(O[C@H]2CCNC[C@@H]2O)c1C
- inhibition at 0.1 µM [1]: 6%
- inhibition of binding to Ne (Norepinephrine) uptake receptors (in words) [2]: inhibits binding
- inhibition at 0.1 µM [2]: 4%
- inhibition of binding to 5-HT7 receptors (in words) [3]: inhibits binding
- inhibition at 0.1 µM [3]: 22%
- inhibition of binding to 5-HT2c receptors (in words) [4]: inhibits binding
- inhibition at 0.1 µM [4]: 7%
- inhibition at 0.1 µM [5]: -8%
- % inhibition of control specific at 100 nM conc. [6]: 5%
- inhibition at 0.1 µM [7]: 5%

Compound: Cc1cccc(O[C@@H]2CCNC[C@H]2O)c1C
- inhibition at 0.1 µM [1]: 6%
- inhibition at 0.1 µM [2]: -9%
- inhibition of binding to 5-HT7 receptors (in words) [3]: inhibits binding
- inhibition at 0.1 µM [3]: 16%
- inhibition at 0.1 µM [4]: -11%
- inhibition of binding to 5-HT1A receptors (in words) [5]: inhibits binding
- inhibition at 0.1 µM [5]: 16%
- % inhibition of control specific at 100 nM conc. [6]: 0%
- inhibition at 0.1 µM [7]: 4%

Compound: Cc1cccc(O[C@H]2CCNC[C@H]2O)c1C
- inhibition of binding to 5-HT2B receptors (in words) [1]: effective inhibitor of binding
- inhibition at 0.1 µM [1]: 48%
- inhibition at 0.1 µM [2]: 3%
- inhibition at 0.1 µM [3]: 1%
- inhibition of binding to 5-HT2c receptors (in words) [4]: effective inhibitor of binding
- inhibition at 0.1 µM [4]: 4%
- inhibition of binding to 5-HT1A receptors (in words) [5]: effective inhibitor of binding
- inhibition at 0.1 µM [5]: 39%
- % inhibition of control specific at 100 nM conc. [6]: 8%
- inhibition at 0.1 µM [7]: 6%
